For the assay, the system named is cos-7 cells. The experiment in a line: DNA transfection: luciferase expression relative to Lipofectamine 2000. In kind it is cell-based. The following applies: for Luciferase expression as a percentage of that achieved using Lipofectamine 2000: 300 ng Luciferase DNA per well, luciferase assay after 48 hours; for luciferase expression (second part of table, values relative to LIPO2000): 300 ng of DNA per well. The gist of the method: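 Lipid/DNA complexes, 300 ng luciferase DNA per well at 2.5-25 w/w lipid:DNA, were formed in sodium acetate/Optimem and added to overnight-seeded cos-7 cells. Luciferase was measured by Bright-Glo luminescence after 48 hours and quantified against an enzyme standard curve. Values are expressed as % of Lipofectamine 2000 at 2.5 w/w.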

“And” between values parts separate entries of the source, which are not always exact repeats. Identical values can stand only once.

With `CCCCCCCCCCCCCCCOC(=O)CCN(CCC(=O)OCCCCCCCCCCCCCCC)C(CO)CO` [LG25], the “Luciferase expression as a percentage of that achieved using Lipofectamine 2000” value (from here on “Luciferase expression as a percentage”) came out at 15.9% (lipid/DNA 2.5 w/w); 32.0% (lipid/DNA 5 w/w); 43.2% (lipid/DNA 10 w/w); 56.9% (lipid/DNA 15 w/w); 42.1% (lipid/DNA 20 w/w); 63.9% (lipid/DNA 25 w/w). For the same molecule, the “luciferase expression (second part of table, values relative to LIPO2000)” value (lipid/DNA 2.5 w/w) is recorded as 15.9; the “luciferase expression (second part of table, values relative to LIPO2000)” value (lipid/DNA 5 w/w) came out at 32.0; the “luciferase expression (second part of table, values relative to LIPO2000)” value (lipid/DNA 10 w/w) is given as 43.2; the “luciferase expression (second part of table, values relative to LIPO2000)” value (lipid/DNA 15 w/w) was 56.9; the “luciferase expression (second part of table, values relative to LIPO2000)” value (lipid/DNA 20 w/w) was 42.1; the “luciferase expression (second part of table, values relative to LIPO2000)” value (lipid/DNA 25 w/w) was determined as 63.9.
With `CCCCCCCCCCCCCCCOC(=O)CCN(CCOC)CCC(=O)OCCCCCCCCCCCCCCC` [LG10], the “Luciferase expression as a percentage” value is 0.0% (lipid/DNA 2.5 w/w); 0.0% (lipid/DNA 5 w/w); 0.0% (lipid/DNA 10 w/w); 0.0% (lipid/DNA 15 w/w); 0.0% (lipid/DNA 20 w/w); 0.0% (lipid/DNA 25 w/w).
On to `CCCCCCCCCCOC(=O)CCN(CCCCCCO)CCC(=O)OCCCCCCCCCC` [LB36], for which the “Luciferase expression as a percentage” value is, setting by setting: (lipid/DNA 2.5 w/w) 0.1%; (lipid/DNA 5 w/w) 0.1%; (lipid/DNA 10 w/w) 0.1%; (lipid/DNA 15 w/w) 0.1%; (lipid/DNA 20 w/w) 0.1%; (lipid/DNA 25 w/w) 0.1%.
As for `CCCCCCCCCCCCCCOC(=O)CCN(CCC(=O)OCCCCCCCCCCCCCC)C(C)(CO)CO` [LF26], the “Luciferase expression as a percentage” value (lipid/DNA 2.5 w/w) is on record as 0.1%; the “Luciferase expression as a percentage” value (lipid/DNA 5 w/w) was found to be 0.2%; the “Luciferase expression as a percentage” value (lipid/DNA 10 w/w) is on record as 0.7%; the “Luciferase expression as a percentage” value (lipid/DNA 15 w/w) is given as 0.1%; the “Luciferase expression as a percentage” value (lipid/DNA 20 w/w) is on record as 0.1%; the “Luciferase expression as a percentage” value (lipid/DNA 25 w/w) stood at 0.3%.
With `CCCCCCCCCCCCOC(=O)CCN(CCC(=O)OCCCCCCCCCCCC)CCN(CC)CC` [LD75], the “Luciferase expression as a percentage” value was determined as 0.1% (lipid/DNA 2.5 w/w); 0.1% (lipid/DNA 5 w/w); 0.1% (lipid/DNA 10 w/w); 0.2% (lipid/DNA 15 w/w); 0.2% (lipid/DNA 20 w/w); 0.2% (lipid/DNA 25 w/w).
Take `CCCCCCCCCCCCCCOC(=O)CCN(CCOCC)CCC(=O)OCCCCCCCCCCCCCC` [LF11]: the “Luciferase expression as a percentage” value is on record as 0.1% (lipid/DNA 2.5 w/w); 0.1% (lipid/DNA 5 w/w); 0.0% (lipid/DNA 10 w/w); 0.0% (lipid/DNA 15 w/w); 0.1% (lipid/DNA 20 w/w); 0.1% (lipid/DNA 25 w/w).
For `CCCCCCCCCCCCCCCOC(=O)CC[N+](C)(CCCOC)CCC(=O)OCCCCCCCCCCCCCCC.[I-]` [QG1], the “Luciferase expression as a percentage” value by setting is: (lipid/DNA 2.5 w/w) 0.4%; (lipid/DNA 5 w/w) 0.5%; (lipid/DNA 10 w/w) 0.4%; (lipid/DNA 15 w/w) 0.4%; (lipid/DNA 20 w/w) 0.3%; (lipid/DNA 25 w/w) 0.3%.
With `CCCCCCCCCCOC(=O)CCN(CCOCCO)CCC(=O)OCCCCCCCCCC` [LB31], the “Luciferase expression as a percentage” value was 1.2% and 0.1% (lipid/DNA 2.5 w/w); 0.8% and 0.1% (lipid/DNA 5 w/w); 8.3% and 0.1% (lipid/DNA 10 w/w); 1.9% and 0.1% (lipid/DNA 15 w/w); 1.3% and 0.1% (lipid/DNA 20 w/w); 4.2% and 0.1% (lipid/DNA 25 w/w).
Turning to `CCCCCCCCCCCCCCOC(=O)CCN(CCCOC)CCC(=O)OCCCCCCCCCCCCCC` [LF1], the “Luciferase expression as a percentage” value is, setting by setting: (lipid/DNA 2.5 w/w) 0.1%; (lipid/DNA 5 w/w) 0.1%; (lipid/DNA 10 w/w) 0.0%; (lipid/DNA 15 w/w) 0.0%; (lipid/DNA 20 w/w) 0.1%; (lipid/DNA 25 w/w) 0.1%.
For the molecule `CCCCCCCCCCCCOC(=O)CCN(CCC(=O)OCCCCCCCCCCCC)C(C)CN(C)C` (stereo not drawn) [LD79], the “Luciferase expression as a percentage” value was 0.1% (lipid/DNA 2.5 w/w); 0.1% (lipid/DNA 5 w/w); 0.1% (lipid/DNA 10 w/w); 0.2% (lipid/DNA 15 w/w); 0.3% (lipid/DNA 20 w/w); 0.2% (lipid/DNA 25 w/w).
With `CCCCCCCCCCCCCCCCCCOC(=O)CCN(CCC(=O)OCCCCCCCCCCCCCCCCCC)CCc1ccc(OC)c(OC)c1` [LH17], the “Luciferase expression as a percentage” value (lipid/DNA 2.5 w/w) was determined as 0.0%; the “Luciferase expression as a percentage” value (lipid/DNA 5 w/w) amounted to 0.0%; the “Luciferase expression as a percentage” value (lipid/DNA 10 w/w) was determined as 0.0%; the “Luciferase expression as a percentage” value (lipid/DNA 15 w/w) came out at 0.0%; the “Luciferase expression as a percentage” value (lipid/DNA 20 w/w) amounted to 0.0%; the “Luciferase expression as a percentage” value (lipid/DNA 25 w/w) turned out to be 0.0%.
Take `CCCCCCCCCCCCCCCOC(=O)CCN(CCCOC)CCC(=O)OCCCCCCCCCCCCCCC` [LG1]: the “Luciferase expression as a percentage” value reads like this: (lipid/DNA 2.5 w/w) 0.0%; (lipid/DNA 5 w/w) 0.0%; (lipid/DNA 10 w/w) 0.0%; (lipid/DNA 15 w/w) 0.0%; (lipid/DNA 20 w/w) 0.0%; (lipid/DNA 25 w/w) 0.0%.
As to `CCCCCCCCCCOC(=O)CCN(CCC(=O)OCCCCCCCCCC)CCc1ccc(OC)c(OC)c1` [LB17], the “Luciferase expression as a percentage” value (lipid/DNA 2.5 w/w) turned out to be 0.1%; the “Luciferase expression as a percentage” value (lipid/DNA 5 w/w) stood at 0.1%; the “Luciferase expression as a percentage” value (lipid/DNA 10 w/w) came out at 0.1%; the “Luciferase expression as a percentage” value (lipid/DNA 15 w/w) came to 0.1%; the “Luciferase expression as a percentage” value (lipid/DNA 20 w/w) came out at 0.1%; the “Luciferase expression as a percentage” value (lipid/DNA 25 w/w) is 0.1%.
As for `CCCCCCCCCCCCCCCOC(=O)CCN(CCCCO)CCC(=O)OCCCCCCCCCCCCCCC` [LG28], the “Luciferase expression as a percentage” value (lipid/DNA 2.5 w/w) amounted to 0.2%; the “Luciferase expression as a percentage” value (lipid/DNA 5 w/w) is on record as 0.5%; the “Luciferase expression as a percentage” value (lipid/DNA 10 w/w) worked out at 0.2%; the “Luciferase expression as a percentage” value (lipid/DNA 15 w/w) came out at 0.2%; the “Luciferase expression as a percentage” value (lipid/DNA 20 w/w) was 0.1%; the “Luciferase expression as a percentage” value (lipid/DNA 25 w/w) is 0.2%.
Take `CCCCCCCCCCCCCCOC(=O)CCN(CCCCO)CCC(=O)OCCCCCCCCCCCCCC` [LF28]: the “Luciferase expression as a percentage” value is recorded as 0.1% (lipid/DNA 2.5 w/w); 0.1% (lipid/DNA 5 w/w); 0.1% (lipid/DNA 10 w/w); 0.2% (lipid/DNA 15 w/w); 0.3% (lipid/DNA 20 w/w); 0.4% (lipid/DNA 25 w/w).
For `CCCCCCCCCCCCCCOC(=O)CCN(CCCn1ccnc1)CCC(=O)OCCCCCCCCCCCCCC` [LF93], the “Luciferase expression as a percentage” value is, setting by setting: (lipid/DNA 2.5 w/w) 32.0%; (lipid/DNA 5 w/w) 50.4%; (lipid/DNA 10 w/w) 15.0%; (lipid/DNA 15 w/w) 150.7%; (lipid/DNA 20 w/w) 143.2%; (lipid/DNA 25 w/w) 171.3%. Besides, the “luciferase expression (second part of table, values relative to LIPO2000)” value (lipid/DNA 2.5 w/w) was determined as 32.0; the “luciferase expression (second part of table, values relative to LIPO2000)” value (lipid/DNA 5 w/w) is recorded as 50.4; the “luciferase expression (second part of table, values relative to LIPO2000)” value (lipid/DNA 10 w/w) was 15.0; the “luciferase expression (second part of table, values relative to LIPO2000)” value (lipid/DNA 15 w/w) turned out to be 150.7; the “luciferase expression (second part of table, values relative to LIPO2000)” value (lipid/DNA 20 w/w) worked out at 143.2; the “luciferase expression (second part of table, values relative to LIPO2000)” value (lipid/DNA 25 w/w) came out at 171.3.

For the origin of these results see patent US9006487B2, “Amine-containing lipids and uses thereof” (Massachusetts Institute of Technology, priority 2005, dated 2015).
